In patent publication US9221810B2, “Substituted bicyclic aromatic compounds as S-nitrosoglutathione reductase inhibitors” (Nivalis Therapeutics, Inc., priority 2010, dated 2015):

System: cigarette smoke-induced COPD (acute 4 day)
Experiment: Acute (4 day) cigarette smoke exposure COPD model
Format: in vivo, female C57Bl/6 mice
Procedure: The efficacy of GSNOR inhibitors was assessed in a mouse model of chronic obstructive pulmonary disease (COPD) induced by short duration (4 days or 11 days) of exposure to cigarette smoke. Infiltration of inflammatory cells into the bronchoalveolar lavage fluid (BALF) and BALF levels of chemokines involved in inflammation and tissue turnover/repair were measured to assess the influences of GSNOR inhibitors on some of the early events associated with the initiation and progression of COPD.
Efficacy of GSNOR inhibitors against COPD was explored using acute (4 day) and subchronic (11 day) models of cigarette smoke-induced COPD in mice. […] In animal models, changes in lung pathology are only evident after extended (several months) duration of exposure to cigarette smoke, thus making chronic models prohibitive as effective screening tools. More recently, models exploring inflammatory responses after short duration (2 weeks or less) of smoke exposure in mice have been utilized as tools for screening efficacy and mechanisms of action of novel therapeutics against COPD. The key roles of inflammation in the initiation and progression of COPD, make these short duration models relevant for initial tests of efficacy of novel therapeutics.
Acute (4 Day) Smoke Exposure Model: Female C57Bl/6 mice (N=8 per group) were exposed to cigarette smoke using a whole body exposure chamber. Mice were exposed daily for 4 consecutive days to 4 cycles of smoke from 6 sequential cigarettes (Kentucky 3R4F without filter) with a 30 minute smoke free interval between cycles. GSNOR inhibitors were administered daily via oral dosing at 10 mg/kg/day for 7 days starting 2 days prior to smoke exposure and continuing 1 day post-exposure. The effects of GSNOR inhibitors were assessed by quantitating the numbers of total cells, leukocytes, and leukocytes differentials in the BALF via light microscopy and the levels of BALF chemokines via ELISA at approximately 24 h after the last smoke exposure. The effect of GSNOR inhibitors were compared to vehicle treated controls. The PDE4 inhibitor, roflumilast, was used as the positive control for the study. A group of naïve mice (N=8) was exposed to air and used as a negative control for the study.

[1] = oral 10 mg/kg/day for 7 days, vs vehicle treated controls, p<0.05

O=C(O)c1ccc(-c2ccc3cc(O)ccc3n2)cc1 [Example 3, 4-(6-hydroxyquinolin-2-yl)benzoic acid]
BALF chemokines (acute 4 day smoke model): restored BALF chemokines towards levels observed in naïve mice
effects compared to roflumilast (positive control) (acute 4 day smoke model): comparable to or greater than those observed for roflumilast
decrease of eosinophils in BALF [1]: 95%
decrease of leukocytes in BALF [1]: 80%
decrease of macrophages in BALF [1]: 75%
decrease of neutrophils in BALF [1]: 84%
decrease of total cells in BALF [1]: 66%
